Reference: US20250145603A1, “CRYSTAL FORMS OF AN ANTI-RSV AGENT” (Enanta Pharmaceuticals, Inc., priority 2023, published 2025)
Values after ≈ are worked out from the molar mass of the structure shown. “Also recorded” adds a separate entry of the source.

How the values were obtained:
[1] = Physical stability and conversion of solid forms (polymorph screen)
[2] = Hygroscopicity by DVS (Dynamic Vapor Sorption); type: physicochemical
[3] = Solubility of Form A in water; type: physicochemical
[4] = Solubility of Form A in organic solvents; type: physicochemical

With `O=C1Nc2ccccc2C(c2ccccc2)=N[C@@H]1Nc1nnc(-c2ncc(C(F)(F)F)cc2N2CCOCC2)o1` [Form D] as the compound, how does the “conversion to another solid form” value [1] read?
Its value is “converts to Form F upon air drying”.

Which “conversion to another solid form” value [1] does the source give for `O=C1Nc2ccccc2C(c2ccccc2)=N[C@@H]1Nc1nnc(-c2ncc(C(F)(F)F)cc2N2CCOCC2)o1` [Amorphous] here?
Its value is “Crystallizes to A”.

And the hygroscopicity [2]?
The hygroscopicity was “Appeared non-hygroscopic”.

For `O=C1Nc2ccccc2C(c2ccccc2)=N[C@@H]1Nc1nnc(-c2ncc(C(F)(F)F)cc2N2CCOCC2)o1` [Material C], which “conversion to another solid form” value [1] is on record?
The value was “desolvate readily to Form A; also recorded: Likely converts to A on drying”.

For `O=C1Nc2ccccc2C(c2ccccc2)=N[C@@H]1Nc1nnc(-c2ncc(C(F)(F)F)cc2N2CCOCC2)o1` [Form G], which “physical stability of solid form” value [1] is on record?
The value was “physically stable at ambient temperature”.

With `O=C1Nc2ccccc2C(c2ccccc2)=N[C@@H]1Nc1nnc(-c2ncc(C(F)(F)F)cc2N2CCOCC2)o1` [Form F] as the compound, how does the “conversion to another solid form” value [1] read?
The value was “Converts to G in ethyl acetate”.

Which hygroscopicity [2] does the source give for `O=C1Nc2ccccc2C(c2ccccc2)=N[C@@H]1Nc1nnc(-c2ncc(C(F)(F)F)cc2N2CCOCC2)o1` [Form A] here?
The hygroscopicity was “not hygroscopic; also recorded: Anhydrous/unsolvated, non-hygroscopic”.

What about the “weight gain during adsorption” value ([2]; DVS, adsorption to 95% RH) of the same compound?
The value was 0.1 wt %.

And the “moisture loss on desorption” value ([2]; DVS, desorption to 5% RH)?
The value was “losing all of the gained moisture”.

What about the solubility ([3]; aqueous buffer, from pH 4-8) of the same compound?
Its solubility is about 2 µg/mL (≈ 3.64 µM).

And the solubility ([3]; simulated gastric fluid, at pH 1)?
Its solubility is 13.3 µg/mL (≈ 24.2 µM).

And the “solubility in organic solvents” value ([4]; alcohols, ethyl acetate, acetonitrile)?
The value was “relatively poor solubility”.

What about the “solubility in organic solvents” value ([4]; dichloromethane, 1,4-dioxane, tetrahydrofuran, acetone) of the same compound?
Its value is “highly soluble”.
